From patent US20070160657A1, “Targeting and intestinal-absorption controlled liposome having sugar chain and therapeutic drug for cancer and diagnostic drug containing the liposome” (National Institute of Advanced Industrial Science, priority 2003, published 2007)

Tests used:
KG-1a cells = assay: Cytotoxicity of doxorubicin HCl incorporated in liposome, WST-8, human leukemia cells; type: cell-based; conditions: read-out: 50% growth inhibition concentration (IC50); KG-1a human leukemia cells, 72 hours
Procedure: (§1) KG-1a cells established from an acute myeloid leukemia patient were used as human leukemia cells. KG-1a cells were cultured in RPMI 1640 medium containing 10% fetal bovine serum (hereinafter FBS). MRC5 cells established from normal fibroblastic cells were used as normal human cells, and cultured in MEM medium containing 10% FBS. Cell suspensions were prepared from these cells at the concentration of 10^5 cells/ml and distributed to 96 well plates at 10^4 cells/well. After 24 hours, free doxorubicin HCl, which was not incorporated in liposome (hereinafter free Dox), doxorubicin HCl incorporated in liposome on which sugar was not bonded (hereinafter L-Dox) and doxorubicin HCl incorporated in liposome on which sialyl Lewis X tetrasaccharide was bonded (hereinafter L-Dox-SLX) were added to each well at appropriate concentrations. […] After removing the media containing the anticancer drug, replacing with 100 μl of RPMI 1640 or MEM containing 10% WST-8 and 10% FBS and incubating for 3 hours, the quantitation of cells were carried out by measuring absorbance at 485 nm (using the absorbance at 550 nm as a reference). Kiling activity (%)=100−(absorbance of the well of interest at 485 nm−absorbance of the same well at 550 nm)/(absorbance of the untreated well at 485 nm−absorbance of the untreated well at 550 nm)×100. […]

MRC5 cells = assay: Cytotoxicity of doxorubicin HCl incorporated in liposome, WST-8, normal human cells; type: cell-based; conditions: read-out: 50% growth inhibition concentration (IC50), 72 hours
Procedure: as §1

[1] = blood; tail vein; amount administered 1.4 mg/kg; mice with EAT cancer
Procedure: Ehrlich ascites tumor (EAT) cells (about 2×10^7 cells) were implanted subcutaneously into the right femoral region in male ddY mice (7 weeks of age), and the 50 mice were used in this test after the tumor tissues grew to 50 to 100 cubic mm (after 6 to 8 days).
These mice with cancer were separated into two groups, 25 mice per each group, and the mice in each group were injected with a liposome solution encapsulating having glycolipid type sugar chain and doxorubicin or free doxorubicin solution at a dose of 0.2 ml in tail vein after the tumor implant. Then, at various time intervals, the doxorubicin concentration was measured by fluorescent method (470 nm) in blood and tumor tissue of 5 mice from each group.

[2] = test system: Collagen type II induced arthritis (CIA) model; assay: Treatment of RA (CIA) mice by intravenous administration; type: in vivo, DBA/1J mouse
[3] = test system: Collagen type II induced arthritis (CIA) model; assay: Treatment of RA (CIA) mice by oral administration; type: in vivo, DBA/1J mouse; conditions: oral 3 times a week, Day 28 to 39; free Pred 100 μg (up to Day 32), liposomes 10 μg per administration
[4] = test system: Collagen type II induced arthritis (CIA) model; assay: Determination of suitable dose of predonisolone phosphate in RA (CIA) mice, intravenous; type: in vivo, DBA/1J mouse

SMILES | IC50 (KG-1a cells) [nM] | IC50 (MRC5 cells) [µM] | AUC0→∞ [1] [mg·h/mL] | Inflammatory Activity (IA) ([2]; Day 37 and afterward, iv 100 μg per injection, twice a week) | Inflammatory Activity (IA), comparison between groups ([2]; iv twice a week, free Pred 100 μg, liposomes 10 μg per injection) | Inflammatory Activity (IA), comparison between groups [3] | Inflammatory Activity (IA) versus Control ([4]; iv 250 μg per injection, 500 μg per week) | Inflammatory Activity (IA) versus Control ([4]; iv 500 μg per injection, 1000 μg per week) | Dose required to suppress the progression of inflammation ([4]; iv, more than 500 up to 1000 μg/week) [μg/week]
COc1cccc2c1C(=O)c1c(O)c3c(c(O)c1C2=O)C[C@@](O)(C(=O)CO)C[C@@H]3O[C@H]1C[C@H](N)[C@H](O)[C@H](C)O1.Cl [free Dox, doxorubicin HCl] | 180 | 8.4 | 0.13 ± 0.01 | – | – | – | – | – | –
C[C@]12C=CC(=O)C=C1CC[C@@H]1[C@@H]2[C@@H](O)C[C@@]2(C)[C@H]1CC[C@]2(O)C(=O)COP(=O)(O)O [free Pred, predonisolone phosphate] | – | – | – | about 50% | no clear difference from the Control group in IA | no significant difference in IA | No significant difference | no increase in IA was observed and the progression of inflammation was suppressed | > 500
